Data published in patent publication US6737058B2, “Methods for inhibiting endothelial cell and fibrinogen mediated inflammation using fibrinogen specific antibodies” (The Scripps Research Institute, priority 1992, dated 2004).

Legend:
[1] = test system: TNF or LPS-stimulated HUVEC; test: 125I-labelled fibrinogen binding to TNF- or LPS-stimulated HUVEC; set-up: species or system human; conditions: TNF 5 ng/ml or LPS 1.0 μg/ml, 4 hours at 37° C.
Description: To determine the effect that known stimulators of HUVEC have on the binding characteristics of fibrinogen to HUVEC, dose-response experiments were performed as described in Example 3A2) on untreated HUVEC and TNF or lipopolysaccharide (LPS, Genzyme))-stimulated HUVEC. TNF and LPS were separately admixed at the respective concentrations of 5 nanograms (ng)/ml and 1.0 μg/ml to monolayers of HUVEC and maintained at 37° C. for 4 hours prior to the admixture of the labelled fibrinogen ranging in concentration from 0.01 μM up to 0.36 μM.

HUVEC [2] = test: Iodinated D30 binding to HUVEC monolayers and its competition; set-up: species or system human; conditions: 50 fold molar excess of cold fibrinogen; myoglobin as nonspecific protein
Description: Binding assays described above in Example 3A2) were also performed with the fibrinogen homolog, D30, to determine if that region of fibrinogen also immunoreacted with HUVEC. Since D30 was known to bind to leukocytes via the Mac-1 receptor as described by Altieri et al., J. Biol. Chem., 265:12119-12122 (1990), these experiments were performed to determine if regions of fibrinogen mediating the binding of leukocytes to HUVEC are contained within the D30 fragment. For this analysis, the D30 fragment of fibrinogen prepared in Example 1B was labelled with ^125I as described for labelling of fibrinogen above. Iodinated D30 was admixed to HUVEC monolayers at a concentration of 10 μg/ml to form a binding complex. After washing the cells to remove the unbound D30 as described in Example 3A2) above, the cells were solubilized and the amount of bound radioactivity was determined. The binding of D30 to HUVEC was maximal at 120 minutes of the maintenance period with approximately 60,000 cpm.

HUVEC [3] = test: Inhibition of 125I-labelled fibrinogen binding to HUVEC by cold fibrinogen, anti-VNR antibodies and RGD/RGE peptides; set-up: species or system human
Description: Binding of ^125I-labelled fibrinogen binding to HUVEC assays were performed in the presence of 50 molar excess of unlabelled fibrinogen in order to confirm the specificity of binding as shown in Example 3A. The binding assay was performed as described in Example 3A with the exception that unlabelled fibrinogen was admixed to HUVEC at a 50 molar excess (approximately […] fibrinogen) concurrently with 50 μg/ml of ^125I-labelled fibrinogen. The protein-cell admixtures were maintained at 22° C. for 30 minutes to allow for binding of fibrinogen to HUVEC. In addition to cold fibrinogen, a 50 fold molar excess of BSA was separately admixed as a control. The amount of fibrinogen bound under the above conditions was quantitated as described in Example 3A. The uninhibited total binding of ^125I-labelled fibrinogen saturated after 30 minutes at approximately 4000 cpm per well. […] The binding of fibrinogen to the HUVEC surface fibrinogen receptor is therefore specific.
The specificity of binding to an RGD-independent fibrinogen receptor was confirmed in competition assays performed as described above in the presence of monoclonal antibodies against the beta subunit of the RGD-dependent VNR and in the presence of RGD-containing peptides. For the assays in which the ability of anti-VNR monoclonal antibodies, designated mAb 609 and mAb 7E3, to inhibit the binding of ^125I-labelled fibrinogen to HUVEC, the antibodies were separately maintained at a concentration of 25 μg/ml with HUVEC for 20 minutes at 37° C. After the maintenance period, the antibody-treated HUVEC were washed once with serum-free RPMI 1640 to remove any unbound antibody. Labelled fibrinogen was then admixed to the treated HUVEC at a concentration of 50 μg/ml in the presence of 2.5 mM CaCl2 and […] PPack. The resultant admixtures were maintained for 10-30 minutes at 22° C. The fibrinogen-treated HUVEC were then washed, solubilized and counted as described in Example 3A.
To confirm that the fibrinogen binding site on HUVEC was not RGD dependent, inhibition assays performed as described above for inhibiting with antibodies except that they were done in the presence of 1.0 mM of an RGD-containing peptide. A control RGE-containing peptide was also included in the assay. At selected time points over the time course of one hour, the HUVEC were harvested as described in Example 3A.

HUVEC [4] = test: Adhesion of terminally-differentiated 51Cr-labeled HL-60 cells to resting HUVEC with plasma adhesive proteins; type: cell-based, human; conditions: 150 μ/ml protein, fMLP 10 μM, 30 min at 22° C.
Description: The effect of fibrinogen, vitronectin, and fibronectin on the interaction of terminally-differentiated HL-60 and monocytic THP-1 cells with HUVEC was determined as described in Languino, supra. Briefly, serum-free suspensions of HL-60 or THP-1 cells were labeled with ^51Cr as described in Example 81A to a final incorporation of 0.2-4 cpm/cell. After washes in PBS, pH 7.2, aliquots of the HL-60 cells were resuspended in serum-free RPMI 1640 at 1.5×10^6/ml and stimulated with 10 μM of the chemoattractant formyl-methionyl-leucyl-phenylalanine (fMLP, Sigma, St. Louis, Mo.) and equilibrated with 150 μ/ml fibrinogen, vitronectin, or fibronectin in the presence of 1 mM CaCl2 for 20 min at 22° C. Equilibrated HL-60 were added to resting HUVEC monolayers that had been previously incubated with fresh complete culture medium 12 hours prior to the experiment and incubated for an additional 30 min at 22° C., washed,solubilized in 10-20% SDS, and associated radioactivity determined in a scintillation β-counter. The number of attached cells was quantitated by diving the cpm harvested by the cpm/cell. Under these experimental conditions, there was no aggregation of the various leukocyte subpopulations in the presence of the different plasma adhesive proteins, nor disruption of the HUVEC monolayers at any time interval tested, as judged by routine microscopic examination of the adhesion field. Data are the mean ± S.D. of triplicates from a representative experiment.
Experimental conditions were the same as described in Example 9C1 except that the ^51Cr-labeled HL-60 cells were equilibrated with 40 μg/ml vitronectin or control protein transferrin and added to resting HUVEC for increasing time intervals between 10 and 60 minutes at 22° C. before measurement of leukocyte adhesion.
Experimental conditions were the same as described in Example 9C1 except that the ^51Cr-labeled HL-60 cells were equilibrated with several concentrations of vitronectin ranging from 1.84 to 150 μg/ml and prior to incubation to resting HUVEC.

fibrinogen: fibrinogen isolated from fresh plasma by cold ethanol fractionation, fibronectin-free
labelled fibrinogen molecules bound per cell in comparison to unstimulated cells [1]: doubled
competition of D30 binding to HUVEC (HUVEC [2]): specifically competed
uninhibited total binding of 125I-labelled fibrinogen at saturation (HUVEC [3]; 50 μg/ml, after 30 minutes, 22° C.): approximately 4000 cpm per well
inhibition of 125I-labelled fibrinogen binding to HUVEC (HUVEC [3]; 50 molar excess of unlabelled protein, 50 μg/ml labelled fibrinogen, 22° C., 30 minutes): half that of the total uninhibited binding
inhibition of 125I-labelled fibrinogen binding to HUVEC (FIG. 7) (HUVEC [3]; cold fibrinogen in 50 molar excess, 10-30 minutes): almost completely inhibited
inhibition of 125I-labelled fibrinogen binding to HUVEC (FIG. 8) (HUVEC [3]; cold fibrinogen, time course of one hour): completely inhibited
adhesion of differentiated HL-60 cells to HUVEC relative to cells not equilibrated with an adhesive protein (HUVEC [4]): two to three-fold higher
